Assay results from a compilation of properties of binary mixtures (doi:10.1021/acs.jced.0c00138).

Assay: xn = mol fraction of the nth substance listed
Conditions: 101.3 kPa

CC[n+]1ccn(C)c1.O=S(=O)([N-]S(=O)(=O)C(F)(F)F)C(F)(F)F + CCCOCCO
x1 = 1
Conditions | speed of sound [m/s]
298.15 K | 1239.6
303.15 K | 1228.7
308.15 K | 1218.2
313.15 K | 1207.3
318.15 K | 1196.8

CCCOCCO + CC[n+]1ccn(C)c1.O=S(=O)([N-]S(=O)(=O)C(F)(F)F)C(F)(F)F
speed of sound [m/s]
Conditions | 298.15 K | 303.15 K | 308.15 K | 313.15 K | 318.15 K
x2 = 0.0479 | 1290.9 | 1275.1 | – | 1243.4 | 1228.5
x2 = 0.0964 | 1283.5 | – | 1253.7 | 1238.8 | –
x2 = 0.1514 | 1278 | 1264.2 | 1249.6 | 1234.5 | 1220.2
x2 = 0.2034 | 1273.8 | – | 1245.7 | – | –
x2 = 0.2917 | 1268 | 1255 | 1241.1 | – | –
x2 = 0.3883 | 1263.2 | 1250.6 | 1237 | 1223.4 | –
x2 = 0.4926 | 1258.1 | – | 1233.3 | 1220.8 | 1208.4
x2 = 0.5974 | 1252.8 | 1240.9 | 1229.2 | 1217.1 | 1205.2
x2 = 0.6927 | 1248 | 1236.4 | 1225 | 1214 | 1202.8
x2 = 0.7631 | – | 1232.8 | 1222 | 1211.3 | 1200.3
x2 = 0.8253 | 1241.9 | 1230.8 | 1220.5 | 1209.8 | 1199.5
x2 = 0.8945 | 1240.7 | – | 1219.2 | 1208.4 | 1198.4
x2 = 0.9518 | 1239.7 | 1229.2 | 1218.8 | 1207.7 | 1198
